Source: patent publication US20250186391A1, “ORAL COMPLEMENT FACTOR D INHIBITORS” (BioCryst Pharmaceuticals, Inc., priority 2019, published 2025)

Biological target: Factor D (Homo sapiens (Human), UniProt P00746)
Assay: Factor D esterolytic assay
Type: biochemical
Conditions: Z-Lys-SBzl substrate, 100 mM HEPES, 500 mM NaCl, pH 7.5, 10% DMSO; tested a minimum of three times; read-out: Measured Ki (IC50) Value for Compounds: IC50
Outline: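 Buffer was 100 mM HEPES, 500 mM NaCl, pH 7.5 with 10% DMSO. Compound and Factor D were combined, then Z-Lys-SBzl (1.29 mM) was added either at once or following room-temperature incubation. Rates came from DTNB colour at 405 nm minus 690 nm over 600 s, with percent inhibition giving IC50 over at least three tests.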

Chain of Factor D (P00746 26-253): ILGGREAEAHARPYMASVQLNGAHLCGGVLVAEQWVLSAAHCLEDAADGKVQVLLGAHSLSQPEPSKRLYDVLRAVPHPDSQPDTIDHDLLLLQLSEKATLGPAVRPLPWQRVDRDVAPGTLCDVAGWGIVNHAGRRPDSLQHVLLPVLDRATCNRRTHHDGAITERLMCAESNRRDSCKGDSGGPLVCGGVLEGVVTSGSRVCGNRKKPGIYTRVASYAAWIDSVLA

SMILES | IC50
CC(C)n1cc(-c2cc(-c3cccc(CN)c3)cc3c(COc4ccccc4CC(=O)O)coc23)cn1 [Compound 130c, 2-(2-((5-(3-(aminomethyl)phenyl)-7-(1-isopropyl-1H-pyrazol-4-yl)benzofuran-3-yl)methoxy)phenyl)acetic acid] | < 1 µM
CC(C)n1nc(COc2ccccc2CC(=O)O)c2cc(-c3ccc(CN)cc3)ccc21 [Compound 311c, 2-(2-((5-(4-(aminomethyl)phenyl)-1-isopropyl-1H-indazol-3-yl)methoxy)phenyl)acetic acid] | > 10 µM
COc1cc(-c2cccc(CN)c2)cc2c(COc3cc(C(F)(F)F)ccc3CC(=O)O)coc12 [Compound 269c, 2-(2-((5-(3-(aminomethyl)phenyl)-7-methoxybenzofuran-3-yl)methoxy)-4-(trifluoromethyl)phenyl)acetic acid] | < 1 µM
NCc1cccc(-c2cc(COc3ccccc3CC(=O)O)cc3cc(COc4ccccc4CC(=O)O)oc23)c1 [Compound 7f, 2,2′-((((7-(3-(aminomethyl)phenyl)benzofuran-2,5-diyl)bis(methylene))bis(oxy))bis(2,1-phenylene))diacetic acid] | < 1 µM
Cc1c(CN)cccc1-c1ccc2c(c1)c(COc1ccccc1CC(=O)O)nn2C(C)C [Compound 330c, 2-(2-((5-(3-(aminomethyl)-2-methylphenyl)-1-isopropyl-1H-indazol-3-yl)methoxy)phenyl)acetic acid] | < 1 µM
Cn1cc(-c2cc(-c3cccc(CN)c3)cc3c(COc4ccccc4CC(=O)O)coc23)cn1 [Compound 72h, 2-(2-((5-(3-(aminomethyl)phenyl)-7-(1-methyl-1H-pyrazol-4-yl)benzofuran-3-yl)methoxy)phenyl)acetic acid] | < 1 µM
NCc1cccc(-c2ccc3occ(COc4c(N)cccc4CC(=O)O)c3c2)c1 [Compound 90h, 2-(3-amino-2-((5-(3-(aminomethyl)phenyl)benzofuran-3-yl)methoxy)phenyl)acetic acid] | < 1 µM
CC(C)(C)OC(=O)n1cc(COc2ccccc2CC(=O)O)c2cc(-c3cccc(CN)c3)ccc21 [Compound 75d, 2-(2-((5-(3-(aminomethyl)phenyl)-1-(tert-butoxycarbonyl)-1H-indol-3-yl)methoxy)phenyl)acetic acid] | < 1 µM
COc1ccc(CC(=O)O)c(OCc2c(C)oc3ccc(-c4cc(F)cc(CN)c4)cc23)c1 [Compound 239c, 2-(2-((5-(3-(aminomethyl)-5-fluorophenyl)-2-methylbenzofuran-3-yl)methoxy)-4-methoxyphenyl)acetic acid] | < 1 µM
COc1ccc(CC(=O)O)c(OCc2coc3ccc(-c4ccnc(CN)c4F)cc23)c1 [Compound 71d, 2-(2-((5-(2-(aminomethyl)-3-fluoropyridin-4-yl)benzofuran-3-yl)methoxy)-4-methoxyphenyl)acetic acid] | < 1 µM
NCc1cccc(-c2cc3c(COc4ccccc4CC(=O)O)ccc(C4CC4)c3o2)c1 [Compound 291g, 2-(2-((2-(3-(aminomethyl)phenyl)-7-cyclopropylbenzofuran-4-yl)methoxy)phenyl)acetic acid] | 1 to 10 µM
CC(C)n1nc(COc2ccccc2CC(=O)O)c2cc(-c3ccnc(CN)c3F)ccc21 [Compound 271c, 2-(2-((5-(2-(aminomethyl)-3-fluoropyridin-4-yl)-1-isopropyl-1H-indazol-3-yl)methoxy)phenyl)acetic acid] | < 1 µM
NCc1cccc(-c2ccc3oc(C(F)F)c(COc4ccccc4CC(=O)O)c3c2)c1 [Compound 139c, 2-(2-((5-(3-(aminomethyl)phenyl)-2-(difluoromethyl)benzofuran-3-yl)methoxy)phenyl)acetic acid] | < 1 µM
COCCc1oc2ccc(-c3cccc(CN)c3)cc2c1COc1cc(OC)ccc1CC(=O)O [Compound 238c, 2-(2-((5-(3-(aminomethyl)phenyl)-2-(2-methoxyethyl)benzofuran-3-yl)methoxy)-4-methoxyphenyl)acetic acid] | < 1 µM
NCc1cccc(-c2ccc3occ(COc4cc(C(N)=O)ccc4CC(=O)O)c3c2)c1 [Compound 63c, 2-(2-((5-(3-(aminomethyl)phenyl)benzofuran-3-yl)methoxy)-4-carbamoylphenyl)acetic acid] | < 1 µM
COc1ccc(CC(=O)O)c(OCc2coc3ccc(-c4ccnc(CN)c4)cc23)c1 [Compound 68e, 2-(2-((5-(2-(aminomethyl)pyridin-4-yl)benzofuran-3-yl)methoxy)-4-methoxyphenyl)acetic acid] | < 1 µM
CC(C)n1nc2ccc(-c3cccc(CN)c3)cc2c1COc1ccccc1CC(=O)O [Compound 183e, 2-(2-((5-(3-(aminomethyl)phenyl)-2-isopropyl-2H-indazol-3-yl)methoxy)phenyl)acetic acid] | < 1 µM
CC(=O)c1oc2ccc(-c3cccc(CN)c3)cc2c1COc1ccccc1CC(=O)O [Compound 141c, 2-(2-((2-acetyl-5-(3-(aminomethyl)phenyl)benzofuran-3-yl)methoxy)phenyl)acetic acid] | < 1 µM

SMILES | IC50
NCc1cccc(-c2cc(-c3cccc(CN)c3)c3oc(C(=O)O)c(COc4ccccc4CC(=O)O)c3c2)c1 [Compound 58f, 5,7-bis(3-(aminomethyl)phenyl)-3-((2-(carboxymethyl)phenoxy)methyl)benzofuran-2-carboxylic acid] | < 1 µM
NCc1cccc(-c2ccc3[nH]cc(C(=O)Nc4ccccc4CC(=O)O)c3n2)c1 [Compound 14c, 2-(2-(5-(3-(aminomethyl)phenyl)-1H-pyrrolo[3,2-b]pyridine-3-carboxamido)phenyl)acetic acid] | < 1 µM
CN1CCN(Cc2cc(-c3cccc(CN)c3)cc3c(COc4ccccc4CC(=O)O)coc23)CC1 [Compound 157e, 2-(2-((5-(3-(aminomethyl)phenyl)-7-((4-methylpiperazin-1-yl)methyl)benzofuran-3-yl)methoxy)phenyl)acetic acid] | < 1 µM
NCc1cccc(-c2cc(CO)cc3cc(COc4ccccc4CC(=O)O)oc23)c1 [Compound 29b, 2-(2-((7-(3-(aminomethyl)phenyl)-5-(hydroxymethyl)benzofuran-2-yl)methoxy)phenyl)acetic acid] | < 1 µM
COc1ccc(CC(=O)O)c(OCc2c(C(C)C)oc3ccc(-c4cccc(CN)c4)cc23)c1 [Compound 169c, 2-(2-((5-(3-(aminomethyl)phenyl)-2-isopropylbenzofuran-3-yl)methoxy)-4-methoxyphenyl)acetic acid] | < 1 µM
NCc1cccc(-c2cc(-c3ccc(F)cc3)c3occ(COc4ccccc4CC(=O)O)c3c2)c1 [Compound 221c, 2-(2-((5-(3-(aminomethyl)phenyl)-7-(4-fluorophenyl)benzofuran-3-yl)methoxy)phenyl)acetic acid] | < 1 µM
Cc1cccc(-c2cc(-c3cccc(CN)c3)cc3c(COc4ccccc4CC(=O)O)coc23)c1 [Compound 197c, 2-(2-((5-(3-(aminomethyl)phenyl)-7-(m-tolyl)benzofuran-3-yl)methoxy)phenyl)acetic acid] | < 1 µM
NCc1cccc(-c2ccc3[nH]nc(C(=O)Nc4ccccc4CC(=O)O)c3c2)c1 [Compound 78e, 2-(2-(5-(3-(aminomethyl)phenyl)-1H-indazole-3-carboxamido)phenyl)acetic acid] | < 1 µM
NCc1cccc(-c2cc(-c3cccc(CN)c3)c3oc(COc4ccccc4CC(=O)O)cc3c2)c1 [Compound 8e, 2-(2-((5,7-bis(3-(aminomethyl)phenyl)benzofuran-2-yl)methoxy)phenyl)acetic acid] | < 1 µM
CC(C)(C)OC(=O)n1cc(Cc2cccc(CC(=O)O)c2O)c2cc(-c3cccc(CN)c3)ccc21 [Compound 75e, 2-(3-((5-(3-(aminomethyl)phenyl)-1-(tert-butoxycarbonyl)-1H-indol-3-yl)methyl)-2-hydroxyphenyl)acetic acid] | > 10 µM
Cc1ccc(CC(=O)O)c(OCc2coc3ccc(-c4cccc(CN)c4)cc23)c1 [Compound 47d, 2-(2-((5-(3-(aminomethyl)phenyl)benzofuran-3-yl)methoxy)-4-methylphenyl)acetic acid] | < 1 µM
NCc1cccc(-c2cc3cccc(COc4ccccc4CC(=O)O)c3o2)c1 [Compound 98g, 2-(2-((2-(3-(aminomethyl)phenyl)benzofuran-7-yl)methoxy)phenyl)acetic acid] | < 1 µM
COc1c(-c2ccc3c(c2)c(COc2ccccc2CC(=O)O)nn3C(C)C)ccnc1CN [Compound 326d, 2-(2-((5-(2-(aminomethyl)-3-methoxypyridin-4-yl)-1-isopropyl-1H-indazol-3-yl)methoxy)phenyl)acetic acid] | 1 to 10 µM
COc1ccc(CC(=O)O)c(OCc2coc3c(OC)cc(-c4cccc(CN)c4)cc23)c1 [Compound 251c, 2-(2-((5-(3-(aminomethyl)phenyl)-7-methoxybenzofuran-3-yl)methoxy)-4-methoxyphenyl)acetic acid] | < 1 µM
NCc1cccc(-c2cc(CNCC(F)(F)F)c3occ(COc4ccccc4CC(=O)O)c3c2)c1 [Compound 179b, 2-(2-((5-(3-(aminomethyl)phenyl)-7-(((2,2,2-trifluoroethyl)amino)methyl)benzofuran-3-yl)methoxy)phenyl)acetic acid] | < 1 µM
CC(C)n1nc(COc2ccccc2CC(=O)O)c2cc(-c3cccc(CN)c3N)ccc21 [Compound 307c, 2-(2-((5-(2-amino-3-(aminomethyl)phenyl)-1-isopropyl-1H-indazol-3-yl)methoxy)phenyl)acetic acid] | < 1 µM
CCn1cc(-c2cc(-c3cccc(CN)c3)cc3c(COc4ccccc4CC(=O)O)coc23)cn1 [Compound 128c, 2-(2-((5-(3-(aminomethyl)phenyl)-7-(1-ethyl-1H-pyrazol-4-yl)benzofuran-3-yl)methoxy)phenyl)acetic acid] | < 1 µM
